Data from patent US8048862B2, “Macrocyclic inhibitors of hepatitis C virus replication” (priority 2008, dated 2011).

How the values were obtained:
[1] = target: NS3/NS4 complexes (Hepatitis C virus genotype 1a, UniProt P27958); experiment: NS3/NS4 inhibition activity (IC50); type: biochemical; settings: Table 2, read-out: IC50
Procedure, shortened: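 Buffer: 50 mM Tris-HCl (pH 7.5), 10 mM DTT, 25 μM NS4A peptide, 0.6 mM LDAO and 15% glycerol. Assays were run at 23 °C with preformed NS3/NS4 complex, and the compound concentration giving inhibition was derived as an IC50.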

[2] = system: hepatitis C replicon; experiment: hepatitis C replicon EC50; type: cell-based; settings: Hepatitis C virus; Table 2; hepatitis C replicon; read-out: EC50
Excerpt: NS3-NS4 inhibition activity can be determined using known assay methods.

Sequence of NS3/NS4 complexes (P27958 1027-1657): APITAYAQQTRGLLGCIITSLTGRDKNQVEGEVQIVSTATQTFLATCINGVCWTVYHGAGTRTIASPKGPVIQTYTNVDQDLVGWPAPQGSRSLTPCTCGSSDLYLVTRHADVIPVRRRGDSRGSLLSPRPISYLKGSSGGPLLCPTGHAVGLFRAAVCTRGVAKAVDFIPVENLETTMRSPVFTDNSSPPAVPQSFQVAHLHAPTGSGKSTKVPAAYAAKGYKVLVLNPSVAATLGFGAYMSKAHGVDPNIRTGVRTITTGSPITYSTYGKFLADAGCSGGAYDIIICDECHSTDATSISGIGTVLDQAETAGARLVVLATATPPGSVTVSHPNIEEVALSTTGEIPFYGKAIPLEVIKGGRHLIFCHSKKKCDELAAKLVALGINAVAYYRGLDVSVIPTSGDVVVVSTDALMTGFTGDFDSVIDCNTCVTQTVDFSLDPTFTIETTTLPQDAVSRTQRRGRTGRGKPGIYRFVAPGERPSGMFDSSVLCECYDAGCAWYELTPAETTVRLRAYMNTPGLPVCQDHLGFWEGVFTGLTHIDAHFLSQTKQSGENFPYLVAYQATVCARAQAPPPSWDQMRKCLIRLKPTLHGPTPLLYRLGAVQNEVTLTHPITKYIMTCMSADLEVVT
Sequence of NS3/NS4 complexes (P27958 1658-1711): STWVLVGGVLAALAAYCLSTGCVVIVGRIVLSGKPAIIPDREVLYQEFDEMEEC

Compound | IC50 [1] [nM] | EC50 [2] [nM]
CC(C)n1c(O[C@@H]2C[C@H]3C(=O)N[C@]4(C(=O)NS(=O)(=O)C5(C)CC5)C[C@H]4/C=C\CCCCC[C@H](Nc4cc(F)cc(C(F)(F)F)c4)C(=O)N3C2)nc2ccccc21 [Compound 376] | < 10 | < 10
COc1ccc2c(O[C@@H]3C[C@H]4C(=O)N[C@]5(C(=O)NS(=O)(=O)C6CC6)C[C@H]5/C=C\CCCCC[C@H](Nc5cccc(OC(F)(F)F)c5)C(=O)N4C3)cc(-c3nc(C(C)C)cs3)nc2c1C [Compound 377] | < 10 | < 10
COc1ccc2c(O[C@@H]3C[C@H]4C(=O)N[C@]5(C(=O)NS(=O)(=O)C6(C)CC6)C[C@H]5/C=C\CCCCC[C@H](Nc5cccc(OC(F)(F)F)c5)C(=O)N4C3)cc(-c3nc(C(C)C)cs3)nc2c1C [Compound 378] | < 10 | < 10
COc1ccc2c(O[C@@H]3C[C@H]4C(=O)N[C@]5(C(=O)NS(=O)(=O)C6(C)CC6)C[C@H]5/C=C\CCCCC[C@H](Nc5nc6ccccc6o5)C(=O)N4C3)cc(-c3nc(C(C)C)cs3)nc2c1C [Compound 379] | < 10 | < 10
CC1(S(=O)(=O)NC(=O)[C@@]23C[C@H]2/C=C\CCCCC[C@H](Nc2nc4ccccc4o2)C(=O)N2C[C@H](Oc4nccc5ccccc45)C[C@H]2C(=O)N3)CC1 [Compound 380] | < 10 | 10 to 75
CC1(S(=O)(=O)NC(=O)[C@@]23C[C@H]2/C=C\CCCCC[C@H](Nc2ccc(F)c(F)c2)C(=O)N2C[C@H](Oc4nccc5ccccc45)C[C@H]2C(=O)N3)CC1 [Compound 381] | < 10 | 10 to 75
CCn1c(O[C@@H]2C[C@H]3C(=O)N[C@]4(C(=O)NS(=O)(=O)C5CC5)C[C@H]4/C=C\CCCCC[C@H](Nc4cc(F)cc(C(F)(F)F)c4)C(=O)N3C2)nc2ccccc21 [Compound 388] | < 10 | 10 to 75
CC(C)n1c(O[C@@H]2C[C@H]3C(=O)N[C@]4(C(=O)NS(=O)(=O)N(C)C)C[C@H]4/C=C\CCCCC[C@H](Nc4cc(F)cc(C(F)(F)F)c4)C(=O)N3C2)nc2ccccc21 [Compound 391] | < 10 | 10 to 75
COc1ccc2c(O[C@@H]3C[C@H]4C(=O)N[C@]5(C(=O)NS(=O)(=O)C6(C)CC6)C[C@H]5/C=C\CCCCC[C@H](Nc5cccc(OC(F)(F)F)c5)C(=O)N4C3)cc(-c3ccccc3)nc2c1 [Compound 392] | < 10 | < 10
CC(C)n1c(O[C@@H]2C[C@H]3C(=O)N[C@]4(C(=O)NS(=O)(=O)C5CC5)C[C@H]4/C=C\CCCCC[C@H](Nc4cc(F)cc(C(F)(F)F)c4)C(=O)N3C2)nc2ccccc21 [Compound 393] | < 10 | 10 to 75
CCn1c(O[C@@H]2C[C@H]3C(=O)N[C@]4(C(=O)NS(=O)(=O)C5(C)CC5)C[C@H]4/C=C\CCCCC[C@H](Nc4ccccc4)C(=O)N3C2)nc2ccccc21 [Compound 395] | < 10 | < 10
CC1(S(=O)(=O)NC(=O)[C@@]23C[C@H]2/C=C\CCCCC[C@H](Nc2cc(F)cc(C(F)(F)F)c2)C(=O)N2C[C@H](Oc4nc(-c5ccccc5)cs4)C[C@H]2C(=O)N3)CC1 [Compound 396] | < 10 | > 500
CC(C)(C)Cn1c(O[C@@H]2C[C@H]3C(=O)N[C@]4(C(=O)NS(=O)(=O)C5(C)CC5)C[C@H]4/C=C\CCCCC[C@H](Nc4cc(F)cc(C(F)(F)F)c4)C(=O)N3C2)nc2ccccc21 [Compound 401] | < 10 | 75 to 500
CC(C)Cn1c(O[C@@H]2C[C@H]3C(=O)N[C@]4(C(=O)NS(=O)(=O)C5(C)CC5)C[C@H]4/C=C\CCCCC[C@H](Nc4cc(F)cc(C(F)(F)F)c4)C(=O)N3C2)nc2ccccc21 [Compound 402] | < 10 | 10 to 75
COc1ccc2c(O[C@@H]3C[C@H]4C(=O)N[C@]5(C(=O)NS(=O)(=O)C6CC6)C[C@H]5/C=C\CCCCC[C@H](Nc5ccccc5)C(=O)N4C3)cc(-c3nc(C(C)C)cs3)nc2c1C [Compound 407] | < 10 | < 10
COc1ccc2c(O[C@@H]3C[C@H]4C(=O)N[C@]5(C(=O)NS(=O)(=O)C6CC6)C[C@H]5/C=C\CCCCC[C@H](Nc5ccc(F)cc5)C(=O)N4C3)cc(-c3nc(C(C)C)cs3)nc2c1C [Compound 409] | < 10 | < 10
COc1ccc2c(O[C@@H]3C[C@H]4C(=O)N[C@]5(C(=O)NS(=O)(=O)C6CC6)C[C@H]5/C=C\CCCCC[C@H](Nc5cccc(F)c5)C(=O)N4C3)cc(-c3nc(C(C)C)cs3)nc2c1C [Compound 411] | < 10 | < 10
COc1ccc2c(O[C@@H]3C[C@H]4C(=O)N[C@]5(C(=O)NS(=O)(=O)N(C)C)C[C@H]5/C=C\CCCCC[C@H](Nc5ccccc5)C(=O)N4C3)cc(-c3nc(C(C)C)cs3)nc2c1C [Compound 412] | < 10 | < 10
COc1ccc2c(O[C@@H]3C[C@H]4C(=O)N[C@]5(C(=O)NS(=O)(=O)N(C)C)C[C@H]5/C=C\CCCCC[C@H](Nc5ccc(F)cc5)C(=O)N4C3)cc(-c3nc(C(C)C)cs3)nc2c1C [Compound 415] | < 10 | < 10
COc1ccc2c(O[C@@H]3C[C@H]4C(=O)N[C@]5(C(=O)NS(=O)(=O)N(C)C)C[C@H]5/C=C\CCCCC[C@H](Nc5cccc(F)c5)C(=O)N4C3)cc(-c3nc(C(C)C)cs3)nc2c1C [Compound 417] | < 10 | < 10
COc1ccc2c(O[C@@H]3C[C@H]4C(=O)N[C@]5(C(=O)NS(=O)(=O)C6CC6)C[C@H]5/C=C\CCCCC[C@H](Nc5cc(F)cc(C(F)(F)F)c5)C(=O)N4C3)cc(-c3nc(C(C)C)cs3)nc2c1C [Compound 439] | < 10 | < 10
CC1(S(=O)(=O)NC(=O)[C@@]23C[C@H]2/C=C\CCCCC[C@H](Nc2cccc(OC(F)(F)F)c2)C(=O)N2C[C@H](Oc4nccc5ccccc45)C[C@H]2C(=O)N3)CC1 [Compound 444] | < 10 | 10 to 75
COc1ccc2c(O[C@@H]3C[C@H]4C(=O)N[C@]5(C(=O)NS(=O)(=O)C6(C)CC6)C[C@H]5/C=C\CCCCC[C@H](Nc5ccc(C(F)(F)F)cc5)C(=O)N4C3)cc(-c3nc(C(C)C)cs3)nc2c1C [Compound 445] | < 10 | < 10
COc1ccc2c(O[C@@H]3C[C@H]4C(=O)N[C@]5(C(=O)NS(=O)(=O)C6CC6)C[C@H]5/C=C\CCCCC[C@H](Nc5ccc(C(F)(F)F)cc5)C(=O)N4C3)cc(-c3nc(C(C)C)cs3)nc2c1C [Compound 446] | < 10 | < 10
COc1ccc2c(O[C@@H]3C[C@H]4C(=O)N[C@]5(C(=O)NS(=O)(=O)C6CC6)C[C@H]5/C=C\CCCCC[C@H](Nc5ccc(F)c(C(F)(F)F)c5)C(=O)N4C3)cc(-c3nc(C(C)C)cs3)nc2c1C [Compound 447] | < 10 | < 10
COc1ccc2c(O[C@@H]3C[C@H]4C(=O)N[C@]5(C(=O)O)C[C@H]5/C=C\CCCCC[C@H](Nc5ccccc5)C(=O)N4C3)cc(-c3nc(C(C)C)cs3)nc2c1C [Compound 449] | < 10 | 10 to 75
COc1ccc2c(O[C@@H]3C[C@H]4C(=O)N[C@]5(C(=O)NS(=O)(=O)N6CCCC6)C[C@H]5/C=C\CCCCC[C@H](Nc5ccccc5)C(=O)N4C3)cc(-c3nc(C(C)C)cs3)nc2c1C [Compound 455] | < 10 | < 10
COc1ccc2c(O[C@@H]3C[C@H]4C(=O)N[C@]5(C(=O)NS(=O)(=O)N6CCCCC6)C[C@H]5/C=C\CCCCC[C@H](Nc5ccccc5)C(=O)N4C3)cc(-c3nc(C(C)C)cs3)nc2c1C [Compound 456] | < 10 | 10 to 75
